Experimental findings from patent EP1247803A2, “Indolinone compounds suitable for modulation of protein kinases” (Sugen, Inc., priority 1996, dated 1998) are described below.

Structures are written as SMILES.

The target in one assay is T1, FLK-1 receptor (Mus musculus, UniProt P35918).
T1 construct: expressed in transfected cells; host or cells: NIH3T3 C7#3
The experiment in a line: FLK-1 ELISA (kinase activity of the FLK-1 receptor in FLK-1/NIH3T3 cells, VEGF stimulated). Format: cell-based. In a few lines:
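An ELISA using affinity-purified rabbit anti-FLK-1 antiserum on anti-rabbit IgG-coated plates measured VEGF-stimulated FLK-1 kinase activity. NIH3T3 C7#3 cells carrying FLK-1 were serum-starved (0.1% FBS) overnight, then exposed to compound (final 1:200 dilution, 0.5% DMSO) for two hours at 37 °C.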

Another assay addresses PDGF-R (Homo sapiens, UniProt P09619). Description: PDGF-R ELISA. Format: cell-based. The text has this: A PDGF-R ELISA is described in International Patent Publication No. WO 96/40116, published December 19, 1996 by Tang et al.
A further assay concerns MET. The experiment in a line: MET biochemical kinase assay. More on the design: species or system human; concentration or dose not given beside the values. Put shortly: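 In this format, tyrosine phosphorylation of plate-captured human MET is followed in vitro after compound addition in ATP/divalent-cation buffer, detected by anti-phosphotyrosine-HRP with TMB substrate.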

T1 sequence (P35918 20-1345): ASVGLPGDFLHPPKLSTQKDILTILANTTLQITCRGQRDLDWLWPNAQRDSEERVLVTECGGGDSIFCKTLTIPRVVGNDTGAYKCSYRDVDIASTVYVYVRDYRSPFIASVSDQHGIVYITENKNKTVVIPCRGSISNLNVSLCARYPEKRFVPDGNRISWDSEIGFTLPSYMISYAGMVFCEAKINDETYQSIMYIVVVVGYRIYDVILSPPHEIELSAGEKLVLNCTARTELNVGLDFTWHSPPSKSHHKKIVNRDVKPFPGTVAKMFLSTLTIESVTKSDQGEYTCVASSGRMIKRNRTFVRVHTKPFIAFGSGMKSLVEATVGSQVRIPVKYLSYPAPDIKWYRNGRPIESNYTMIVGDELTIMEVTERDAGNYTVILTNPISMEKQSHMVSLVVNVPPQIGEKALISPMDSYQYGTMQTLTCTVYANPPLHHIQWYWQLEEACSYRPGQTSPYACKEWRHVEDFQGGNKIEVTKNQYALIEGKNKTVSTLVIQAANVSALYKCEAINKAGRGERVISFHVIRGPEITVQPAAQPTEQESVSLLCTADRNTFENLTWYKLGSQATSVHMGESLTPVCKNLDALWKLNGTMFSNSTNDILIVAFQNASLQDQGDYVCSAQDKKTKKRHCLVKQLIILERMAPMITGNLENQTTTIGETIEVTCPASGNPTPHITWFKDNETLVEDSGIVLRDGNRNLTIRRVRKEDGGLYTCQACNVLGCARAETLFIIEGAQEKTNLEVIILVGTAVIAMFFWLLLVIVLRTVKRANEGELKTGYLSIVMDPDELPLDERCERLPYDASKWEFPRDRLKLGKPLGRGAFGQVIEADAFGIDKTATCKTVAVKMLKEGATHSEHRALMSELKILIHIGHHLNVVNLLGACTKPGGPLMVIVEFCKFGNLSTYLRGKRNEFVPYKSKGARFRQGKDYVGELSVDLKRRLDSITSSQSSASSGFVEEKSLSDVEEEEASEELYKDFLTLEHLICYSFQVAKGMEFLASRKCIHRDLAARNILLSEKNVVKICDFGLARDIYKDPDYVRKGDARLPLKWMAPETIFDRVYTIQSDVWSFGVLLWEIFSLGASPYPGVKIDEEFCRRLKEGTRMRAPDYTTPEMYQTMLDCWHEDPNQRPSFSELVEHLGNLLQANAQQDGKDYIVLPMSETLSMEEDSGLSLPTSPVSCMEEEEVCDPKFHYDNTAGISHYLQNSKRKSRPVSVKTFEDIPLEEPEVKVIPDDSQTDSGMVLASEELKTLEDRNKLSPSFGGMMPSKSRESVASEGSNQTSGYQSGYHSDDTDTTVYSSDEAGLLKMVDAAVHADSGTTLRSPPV
PDGF-R, sequence (P09619 33-1106, species assumed): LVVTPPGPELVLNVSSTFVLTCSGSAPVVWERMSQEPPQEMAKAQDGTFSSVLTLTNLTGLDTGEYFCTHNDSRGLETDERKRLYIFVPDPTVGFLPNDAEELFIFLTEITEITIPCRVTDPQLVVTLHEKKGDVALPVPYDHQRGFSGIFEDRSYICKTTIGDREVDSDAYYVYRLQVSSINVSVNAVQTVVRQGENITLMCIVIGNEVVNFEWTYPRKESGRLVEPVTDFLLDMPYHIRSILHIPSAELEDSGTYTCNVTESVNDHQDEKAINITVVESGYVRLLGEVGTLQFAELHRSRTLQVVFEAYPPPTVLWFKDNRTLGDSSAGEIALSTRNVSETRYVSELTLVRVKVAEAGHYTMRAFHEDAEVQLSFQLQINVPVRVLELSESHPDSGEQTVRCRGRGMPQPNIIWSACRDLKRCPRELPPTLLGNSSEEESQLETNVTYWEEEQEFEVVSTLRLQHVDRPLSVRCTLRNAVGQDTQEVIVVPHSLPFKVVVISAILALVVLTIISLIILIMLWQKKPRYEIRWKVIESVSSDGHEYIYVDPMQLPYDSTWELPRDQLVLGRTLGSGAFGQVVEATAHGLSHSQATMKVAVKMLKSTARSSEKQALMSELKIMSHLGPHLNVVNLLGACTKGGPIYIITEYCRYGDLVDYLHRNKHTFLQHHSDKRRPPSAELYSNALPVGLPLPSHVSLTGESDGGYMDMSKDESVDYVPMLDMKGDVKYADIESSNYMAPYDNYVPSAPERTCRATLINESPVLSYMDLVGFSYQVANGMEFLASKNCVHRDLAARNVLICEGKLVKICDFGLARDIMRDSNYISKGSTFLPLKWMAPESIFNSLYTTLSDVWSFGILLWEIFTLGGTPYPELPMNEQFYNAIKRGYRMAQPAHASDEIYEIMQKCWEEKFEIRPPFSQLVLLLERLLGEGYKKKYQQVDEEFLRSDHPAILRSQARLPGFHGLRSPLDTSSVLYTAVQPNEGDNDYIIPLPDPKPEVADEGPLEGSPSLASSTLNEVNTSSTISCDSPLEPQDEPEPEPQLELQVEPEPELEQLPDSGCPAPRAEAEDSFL

For `CCN(CC)c1ccc(C=C2C(=O)Nc3ccc(S(=O)(=O)Nc4ccc(C(F)(F)F)cc4)cc32)cc1` [10727/E02], the “Fik Kinase %Inhibition” value on FLK-1 receptor came out at 9.3%. The “PDGF Kinase %Inhibition” value on PDGF-R is recorded as -6.7%. Moreover, the “Met Kinase % Inhibition” value with MET was 28.0%.
Taken in the same sequence, the figures for `O=C1Nc2c(Br)cc(Br)cc2C1=Cc1c(F)cccc1C(F)(F)F` [10728/A09] were -5.5%, 10.3% and 53.1%.
In the case of `CNS(=O)(=O)c1ccc2c(c1)C(=Cc1cccc(OC)c1OC)C(=O)N2` [10727/D11], on FLK-1 receptor, the “Fik Kinase %Inhibition” value worked out at 10.5%. Further, the “PDGF Kinase %Inhibition” value on PDGF-R is listed as 17.4%. In addition, in the assay with MET, the “Met Kinase % Inhibition” value turned out to be 17.3%.
Turning to `O=C(O)COc1ccccc1C=C1C(=O)Nc2c(Br)cc(Br)cc21` [10728/A10], at FLK-1 receptor, the “Fik Kinase %Inhibition” value is reported as -16.3%. For the same molecule, the “PDGF Kinase %Inhibition” value on PDGF-R was found to be 1.8%. In addition, the “Met Kinase % Inhibition” value with MET is listed as 77.2%.
Consider `Cc1c(Br)ccc2c1C(=Cc1cccc(C(F)(F)F)c1F)C(=O)N2` [10728/C07], for which the “Fik Kinase %Inhibition” value on FLK-1 receptor is listed as -7.2%. At PDGF-R, the “PDGF Kinase %Inhibition” value was found to be 8.9%. Moreover, in the assay on MET, the “Met Kinase % Inhibition” value stood at 46.3%.
Taken in the same sequence, the figures for `CNS(=O)(=O)c1ccc2c(c1)C(=Cc1coc3ccccc3c1=O)C(=O)N2` [10727/D07] were 19.7%, -14.7% and 50.6%.
Take `Cc1c(Br)ccc2c1C(=Cc1c(F)cccc1C(F)(F)F)C(=O)N2` [10728/C09]: the “Fik Kinase %Inhibition” value on FLK-1 receptor is 14.5%. Further, the “PDGF Kinase %Inhibition” value on PDGF-R worked out at 8.1%. Further, the “Met Kinase % Inhibition” value in the assay on MET is 31.6%.
Turning to `O=C1Nc2ccc(CCCl)cc2C1=Cc1cc2c(cc1Cl)OCO2` [10727/G06], at FLK-1 receptor, the “Fik Kinase %Inhibition” value stood at 2.9%. In addition, the “PDGF Kinase %Inhibition” value at PDGF-R is given as -12.5%. In the assay on MET, the “Met Kinase % Inhibition” value was 31.1%.
For `O=C1Nc2ccc(I)cc2C1=Cc1c(F)cccc1C(F)(F)F` [10728/B09], on FLK-1 receptor, the “Fik Kinase %Inhibition” value is given as 1.7%. Also, at PDGF-R, the “PDGF Kinase %Inhibition” value is -0.4%. Further, the “Met Kinase % Inhibition” value in the assay on MET is on record as 81.7%.
Take `COc1cccc(OC)c1C=C1C(=O)Nc2ccc(Br)c(C)c21` [10728/C03]: the “Fik Kinase %Inhibition” value on FLK-1 receptor was 10.5%. Besides, at PDGF-R, the “PDGF Kinase %Inhibition” value worked out at 24.9%. Further, the “Met Kinase % Inhibition” value with MET is 16.9%.
Consider `COc1cc(N(C)C)ccc1C=C1C(=O)Nc2ccc(I)cc21` [10728/B05], for which the “Fik Kinase %Inhibition” value on FLK-1 receptor is reported as -12.3%. Besides, on PDGF-R, the “PDGF Kinase %Inhibition” value is recorded as 9.4%. Also, in the assay on MET, the “Met Kinase % Inhibition” value is on record as 60.4%.
Take `O=C1Nc2ccc(S(=O)(=O)N3CCOCC3)cc2C1=Cc1cc(Cl)cc(Br)c1O` [10727/F04]: the “Fik Kinase %Inhibition” value at FLK-1 receptor was found to be 15.3%. For the same molecule, the “PDGF Kinase %Inhibition” value on PDGF-R is given as -10.3%. Besides, in the assay on MET, the “Met Kinase % Inhibition” value is on record as 92.0%.
For `O=C1Nc2ccc(S(=O)(=O)Nc3ccc(C(F)(F)F)cc3)cc2C1=Cc1cc(O)ccc1O` [10727/E10], on FLK-1 receptor, the “Fik Kinase %Inhibition” value turned out to be 9.7%. The “PDGF Kinase %Inhibition” value on PDGF-R came out at 5.0%. Further, the “Met Kinase % Inhibition” value with MET is on record as 96.6%.
Consider `O=C1Nc2ccc(S(=O)(=O)Nc3ccc(C(F)(F)F)cc3)cc2C1=Cc1cc2c(cc1Cl)OCO2` [10727/E06], for which the “Fik Kinase %Inhibition” value at FLK-1 receptor worked out at 14.2%. The “PDGF Kinase %Inhibition” value on PDGF-R was determined as 9.4%. In addition, the “Met Kinase % Inhibition” value in the assay with MET is on record as -2.2%.
`O=C1Nc2ccc(CCCl)cc2C1=Cc1ccccc1Sc1ccc(Cl)cc1` [10727/G05]: the “Fik Kinase %Inhibition” value on FLK-1 receptor was determined as 8.0%. The “PDGF Kinase %Inhibition” value on PDGF-R is reported as -2.3%. In the assay on MET, the “Met Kinase % Inhibition” value is 7.1%.
`CNS(=O)(=O)c1ccc2c(c1)C(=Cc1c(OC)cccc1OC)C(=O)N2` [10728/D03]: the “Fik Kinase %Inhibition” value at FLK-1 receptor came to 10.2%. The “PDGF Kinase %Inhibition” value on PDGF-R was 32.0%. For the same molecule, the “Met Kinase % Inhibition” value with MET worked out at 13.5%.
Consider `N#Cc1cccc(C=C2C(=O)Nc3ccc(S(=O)(=O)Nc4ccc(C(F)(F)F)cc4)cc32)c1` [10727/E08], for which, on FLK-1 receptor, the “Fik Kinase %Inhibition” value turned out to be 14.2%. The “PDGF Kinase %Inhibition” value at PDGF-R is on record as 23.9%. Also, in the assay on MET, the “Met Kinase % Inhibition” value is 27.0%.
